Measurements: patent publication US20230324392A1, “METHODS AND COMPOSITIONS FOR TARGETING CYTOSOLIC DSDNA SIGNALING IN CHROMOSOMALLY UNSTABLE CANCERS” (MEMORIAL SLOAN KETTERING CANCER CENTER, priority 2020, published 2023)

What was measured:
4T1 tumors = test: Wild-type or cGAS-knockout orthotopic 4T1 tumors treated intratumorally with ADU-S100; format: in vivo, mouse; conditions: ADU-S100 10 μg intratumorally, cGAS KO vs wild-type
Procedure: Methods. Briefly, wild-type or cGAS-knockout 4T1 tumors were orthotopically transplanted in the mammary fat pad of BALB/c immune competent mice. cGAS was knocked out using CRISPR-Cas9. The mice were treated intratumorally with PBS (vehicle) or the STING agonist, ADU-S100 (10 μg).

CT26 cells = test: Tail vein inoculation of CT26 cells in BALB/c mice, metastasis and survival; format: in vivo, mouse; conditions: CT26, BALB/c, IP, vs vehicle
Procedure: Animal metastasis studies: Animal experiments were performed in accordance with protocols approved by the MSKCC Institutional Animal Care and Use Committee. […] There was no need to randomize animals. Investigators were not blinded to group allocation. For tail vein injections, 5×10^4 4T1, 2.5×10^4 B16F10, or 10^5 CT26 cells were injected into the tail vein of 6-7-week old BALB/c (4T1 and CT26) or C57BL/6 (B16F10) mice. Metastasis was primarily assessed through overall survival. Overall survival endpoint was met when the mice died or met the criteria for euthanasia under the IACUC protocol. Animals were censored when death was confirmed to have occurred due to metastasis-unrelated causes such as injury or death during injection, surgery, or anesthesia. Surface lung metastases were assessed at endpoint by direct visual examination after euthanasia at which points lungs were perfused and fixed in 4% paraformaldehyde (4T1 and B16F10 experiments) or stained using India-ink (CT26 experiments). […] H-151 was reconstituted in DMSO with concentration of 100 mM. Each mouse was injected intraperitoneally with 7.5 μL of H-151 stock solution in 200 μL of PBS with 0.1% Tween −80.

4T1 cells [1] = test: Fluorescence-based indirect adenosine measurement after exogenous cGAMP; format: cell-based, mouse; conditions: with and without EHNA
4T1 cells [2] = test: Ifnb1 and ISG expression in transfected 4T1 cells (qPCR); format: cell-based, mouse
Procedure: Quantitative PCR for STING inhibition study: RNA was extracted from cells with Trizol (Invitrogen, Carlsbad, CA, #15596026). cDNA was synthesized using the RNA to cDNA EcoDry™ Premix (Double Primed) kit (Takara #639549). Real-time PCR was performed to measure the relative mRNA expression levels of ISGs and the control GAPDH using Luna® Universal qPCR Master Mix (NEB, IPSWICH, MA, M3003L). The qPCR reaction and analysis were performed on a QuantStudio 6 platform (Life technology, Carlsbad, CA). The sequence of primers for Ccl5 is 5′-[…]-3′ and 5′-[…]-3′. The sequence of primers for Cxcl10 is 5′-[…]-3′ and 5′-[…]-3′, The sequence of primers for Isg15 is 5-A AAGAA-[…]-3′ and 5′-[…]-3′. The sequence for primers for Gapdh is 5′-[…]-3′ and 5′-[…]-3′.
Despite constitutive cGAS-STING activation, 4T1 cells had low baseline expression of Ifnb1 and other ISGs. […] Similar to our in vitro findings, control, cGAS-KO, and STING-KO tumors had low basal—and nearly undetectable—levels of IFN-β, when compared to those observed during active anti-tumor immune responses arising from immune checkpoint blockade of a responsive tumor model used as a reference control (FIG. 6D).

4T1 cells [3] = test: Wound migration of control, Cgas-KO and Enpp1-KO 4T1 cells; format: cell-based, mouse; conditions: cGAMP 5.5 μm
Procedure: Cellular growth and migration assays: Cellular proliferation rates were assessed by seeding 5×10^4 control or Enpp1-KO 4T1 cells in 6-well plates (3-4 replicates per condition). Cells were seeded in the regular RPMI medium with 10% Fetal bovine serum (FBS). About 48 hours before cells growing to form a 90% confluency monolayer, regular media were replaced with media containing indicated drugs. […] Fresh medium was changed every 12 hours. When reaching ˜90% confluency, cells were treated with RPMI medium containing 10 μm Mitomycin C for 1 hour. Wounds were formed using sterile P200 pipette tips. Images of the wounds were captured every 8 hours and were analyzed with a wound healing tool macro in ImageJ (dev.mri.cnrs.fr/projects/imagej-macros/wiki/Wound_Healing_Tool).
Through its ability to bind extracellular adenosine receptors in both tumor and immune cells, adenosine promotes cancer cell migration and is a potent immune suppressor, respectively (FIG. 12B).

`Nc1ncnc2c1ncn2[C@@H]1O[C@@H]2COP(=O)([S-])O[C@@H]3[C@H](O)[C@@H](COP([O-])(=S)O[C@H]2[C@H]1O)O[C@H]3n1cnc2c(N)ncnc21.[Na+].[Na+]` (stereo partly shown) [ADU-S100] was tested, and the “tumor sensitivity (tumor volume over time)” value (4T1 tumors) was “most sensitive condition”.
With `CCc1ccc(NC(=O)Nc2c[nH]c3ccccc23)cc1` [H-151] the “survival of tumor bearing mice” value (CT26 cells) was “significant prolongation in overall survival”.
`Nc1nc2c(ncn2[C@@H]2O[C@@H]3COP(=O)(O)O[C@H]4[C@@H](O)[C@H](n5cnc6c(N)ncnc65)O[C@@H]4COP(=O)(O)O[C@@H]2[C@@H]3O)c(=O)[nH]1` [cGAMP, 2′3′-cGAMP] was tested, and the “H2O2 production after addition of exogenous cGAMP” value (4T1 cells [1]) was “concentration-dependent increase”, the “increase in ISG expression upon transfection” value (4T1 cells [2]) was ~2 fold and the “induction in Ifnb1 upon transfection” value (4T1 cells [2]) was “no induction”. The “rescue of cancer cell migration by exogenous cGAMP” value (4T1 cells [3]) was “rescued migration only in Cgas-KO but not Enpp1-KO tumor cells”.
With Poly(I.C) the “induction of ISGs upon transfection” value (4T1 cells [2]) was “robust induction of ISGs”.
